The test system of test [1] is mice subjected to controlled cortical impact injury. In words: Rotarod motor test after CCI. The format is in vivo. How it is done: All animal procedures were approved by the Animal Research Committee at Cheng Hsin General Hospital (Animal permit number CHIACUC 101–08), and all procedures complied with the Guide for the Care and Use of Laboratory Animals published by the US National Institutes of Health (NIH Publication No. 85–23, revised 1996). Animals were housed under a 12-h light/dark cycle and at constant temperature (21–25°C) and humidity (45–50%). They were allowed free access to pellet chow and water. TBI in mice was induced by a CCI injury model as previously described. Briefly, 8-week-old male C57BL/6 mice (weighing 22–25 g) were anesthetized through the use of intraperitoneal injection of sodium pentobarbital (65 mg/kg; Rhone Merieux, Harlow, UK) and placed in a stereotaxic frame. A 5 mm craniotomy was performed over the right parietal cortex, centered on the coronal suture and 0.1 mm lateral to the sagittal suture, and injury to dura was avoided. […] Body temperature was monitored throughout the surgery by a rectal probe; temperature was maintained at 37.0±0.5°C using a heated pad. […]
Three sets of experiments were performed. […] To determine the optimal dose of salidroside, a pilot study was performed using 2 different doses (20 and 50 mg/kg) administered 10 min after injury, and neurological deficits and tissue damage were evaluated as the main outcomes. […]
(The rotarod test checks motor coordination on a turning rod.)

The test system of another test is cleaved caspase-3. Put plainly: Western blot, injured cortex. The format is in vivo, mice. Conditions: for decrease of cleaved caspase-3 level versus vehicle: 20 mg/kg ip 10 min after CCI, P<0.05. The procedure:
Three sets of experiments were performed. The first set was to investigate the protective effects of salidroside. All animals were randomized into 1 of 3 groups (sham injury, CCI + vehicle, CCI + SALD 20). Surgery/injury, behavioral testing, and tissue analyses were performed by different individuals. Behavioral testing and tissue analyses were performed by individuals blinded to the treatment group. Salidroside (Cayman Chemical, Ann Arbor, MI, USA) dissolved in normal saline (0.25 mL) or a corresponding volume of vehicle (saline) was administered intraperitoneally 10 min following injury. Testing after injury was completed as follows: 1) behavioral testing at days 1, 4, 7, 14, 21, and 28 (n = 8–10 mice/group); 2) cresyl violet staining at day 28 (n = 9 mice/group); 3) histology, determination of brain water content, and western blot analysis at day 1 or 3 (n = 5–6 mice/group). To determine the optimal dose of salidroside, a pilot study was performed using 2 different doses (20 and 50 mg/kg) administered 10 min after injury, and neurological deficits and tissue damage were evaluated as the main outcomes. […] The second set of experiment was to assess the effect of the inhibition of PI3K/Akt with the specific PI3K inhibitor, LY294002 (Cell Signaling Technology, Danvers, MA, USA), on salidroside effects. Animals were randomized into 4 groups. Mice received either: 1) icv pretreatment of LY294002 followed by SALD 20 after CCI (S20Y group); or 2) icv pretreatment of saline (vehicle control) followed by SALD 20 after CCI (S20V group). 3) Mice were infused icv with saline and were subjected to sham injury. 4) Mice were infused icv with LY294002 and were subjected to sham injury. […] Protein concentration was determined by Bradford reagent spectrophotometrically at A595. […] The relative intensity of protein signals was normalized to the corresponding β-actin intensity and was quantified by densitometric analysis with the use of Image J software.
On the technique in general: A western blot detects proteins with antibodies after separation by electrophoresis.

For the compound `OC[C@H]1O[C@@H](OCCc2ccc(O)cc2)[C@H](O)[C@@H](O)[C@@H]1O` [SALD, salidroside], in test [1] (20 mg/kg ip 10 min after CCI, whole observation period (28 days), all P<0.05), the “rotarod performance versus vehicle group” value is “significantly better performance”. The “rotarod outcome versus vehicle group” value in test [1] (50 mg/kg ip 10 min after CCI, only at days 14 and 28, P<0.05) was “significantly improved”. The “decrease of cleaved caspase-3 level versus vehicle” value with cleaved caspase-3 (day 1) was determined as 49.6%; in the test with cleaved caspase-3 (day 3), 34.9%. In addition, the “reduction of cleaved caspase-3 level” value with cleaved caspase-3 (20 mg/kg ip 3 h after injury, day 1) was determined as 34.1%.

The values are drawn from article PMC3454376, “Salidroside Improves Behavioral and Histological Outcomes and Reduces Apoptosis via PI3K/Akt Signaling after Experimental Traumatic Brain Injury” (PLoS ONE, 2012).
